Test results taken from patent US9572862B2, “Methods for promoting lipolysis and oxidation in liver and adipose tissue using catestatin” (The Regents of the University of California, priority 2012, dated 2017).
No end group written: not given here.

Assays:
CST-KO mice = assay: ITT in insulin resistant CST-KO mice with CST, RI-CST or NSC-177941; format: in vivo; settings: ITT in CST-KO mice
Excerpt: FIG. 16. […] Figures in parentheses indicate number of animals.

liver of Chga-KO mice = assay: Hepatic gene expression by real-time PCR after CST; format: in vivo; settings: CST 12 days
Protocol: FIG. 4. Effects of CST on hepatic expression of genes involved in lipogenesis and fatty acid oxidation. Relative mRNA expression of genes involved in fatty acid oxidation in liver of WT and Chga-KO mice after treatment with saline or CST (5 μg/g BW, i.p./day) for 12 days: carnitine palmitoyltransferase 1a (Cpt1α) (A), peroxisome proliferator-activated receptor-alpha (Pparα) (B), acyl-CoA oxidase 1 (Acox1) (C) and uncoupling protein 2 (Ucp2) (D). (E) Relative expression of genes involved in lipogenesis in liver of Chga-KO mice after treatment with saline or CST (5 μg/g BW, i.p./day) for 12 days: sterol regulatory element-binding protein 1 (Srebp-1), peroxisome proliferator-activated receptor-gamma (Pparγ), glycerol-3-phosphate acyltransferase (Gpat4) and Cluster of Differentiation 36 (Cd36).
RNA was extracted using a kit (RNeasy Plus, Qiagen, Valencia, Calif.) according to the manufacturer's specifications. After DNase digestion, 100 ng of RNA was transcribed into cDNA in a 20-μl reaction using a High Capacity cDNA kit (Invitrogen, Carlsbad, Calif.), analyzed, and amplified. PCR was performed in a 25-μl reaction containing 5 μl of cDNA (one-fifth diluted), 2×SYBR Green PCR Master Mix, and the primers described in Table 1 (400 nM each). Differences in cycle threshold values (ΔCt) between target and the housekeeping gene GAPDH were used to calculate the levels of expression.

[1] = reference (8); cited from earlier work
[2] = tested on: STAT3 and AMPK phosphorylation; assay: Stat3 and AMPK signaling in adipose explants from DIO mice; format: cell-based; settings: CST in vivo, leptin 1 μM ex vivo 30 min
Protocol: FIG. 9. Stat3 and AMPK signaling in the adipose tissue explants from DIO and Ob/Ob mice treated with saline, CST (in vivo) and leptin (ex vivo). Explants from DIO mice (A&B) and Ob/Ob mice (C&D) were incubated with saline or leptin (1 μM) for 30 min, homogenized and immunoblotted for phospho- and total Stat3 (A&C) as well as phospho- and total AMPK signals (B&D). Results are presented as the ratio of signal strength of phospho-over total.
Adipose tissue explants were prepared as described (42). Epididymal fat pads from 12 hr fasted WT, Chga-KO, DIO and Ob/Ob mice with or without CST treatment were collected in Kreb-Ringer-phosphate (KRP) buffer containing 10 mM Hepes and 0.5% BSA. Tissues were minced to 1-2 mm size and treated with 100 nM CST, 1 μM leptin, or saline for 30 min (for signaling analysis) or 3 hr (for lipolysis and β-oxidation assays). Explants were also treated acutely with CST, leptin, a combination, or saline. At the end, incubation media were saved for analysis of glycerol and fatty acid release. Explants were washed prior to homogenization for immunoblotting and analysis of fatty acid oxidation.
Adipose tissue explants after treatments ex vivo and tissues from mice treated in vivo were homogenized in a buffer containing phosphatase and protease inhibitors (20 mM Tris/HCl (pH 7.5), 250 mM sucrose, 2 mM EDTA, 2 mM EGTA, 2 mM Na3VO4, 10 mM NaF, 2 mM Na4P2O7, 1 mM phenylmethylsulfonyl fluoride, 20 μg/ml leupeptin, 10 μg/ml aprotinin, and 1 μM LR-microcystin) as described (38,44). Homogenates were subjected to SDS-PAGE and immunoblotted. Primary antibodies for AMPK and Stat3 were from Cell Signaling Technology (Beverly, Mass.). The chemiluminescence kit was from Pierce (Rockford, Ill.).

SSMKLSFRARAYGFRGPGPQL [CST]
persistence of the insulin-sensitizing effect (CST-KO mice): persisted throughout the experimental period | liver mRNA expression of Acox (liver of Chga-KO mice): augmented | liver mRNA expression of Cd36 (liver of Chga-KO mice): stimulated | liver mRNA expression of Cpt1α (liver of Chga-KO mice): augmented | liver mRNA expression of Gpat4 (liver of Chga-KO mice): stimulated | liver mRNA expression of Pparα (liver of Chga-KO mice): augmented | liver mRNA expression of Pparγ (liver of Chga-KO mice): no effect | liver mRNA expression of Srebp-1 (liver of Chga-KO mice): no effect | liver mRNA expression of Ucp2 (liver of Chga-KO mice): augmented | protease degradation [1]: susceptible to complete protease degradation | AMPK phosphorylation [2]: not AMPK phosphorylation | STAT3 phosphorylation [2]: stimulated only STAT3 phosphorylation
